Data published in US20100298141A1, “SUBSTITUTED PYRIDINE N-OXIDE HERBICIDES” (E. I. DU PONT DE NEMOURS AND COMPANY, priority 2007, published 2010).

Key:
[1] = tested on: Virginia dayflower; assay: Test F preemergence test; assay type: in vivo, Commelina virginica; details: scale 0 to 100
Outline: (§1)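 Greenhouse screen: test chemical in surfactant-containing non-phytotoxic solvent applied preemergence to sown seeds or postemergence to sugarcane plants; after 14 to 21 days each species scored visually versus controls.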

[2] = tested on: quackgrass; assay: Test F preemergence test; assay type: in vivo, Elytrigia repens; details: scale 0 to 100
Outline: as §1

[3] = tested on: prickly sida; assay: Test F preemergence test; assay type: in vivo, Sida spinosa; details: scale 0 to 100
Outline: as §1

[4] = tested on: common ragweed; assay: Test C pre-/postemergence test; assay type: in vivo, Ambrosia elation; details: for Plant response rating, Ragweed: scale 0 to 100, 0 no effect, 100 complete control
Outline: (§2)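 Compounds in a non-phytotoxic solvent with surfactant applied preemergence to seeded pots and, at the same time, postemergence to plants 2–18 cm tall (1- to 4-leaf stage). Paddy tests: pots flooded to 3 cm, compound applied into the water, depth held throughout.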

[5] = tested on: blackgrass; assay: Test C pre-/postemergence test; assay type: in vivo, Alopecurus myosuroides; details: for Plant response rating, Blackgrass: scale 0 to 100, 0 no effect, 100 complete control
Outline: as §2

[6] = tested on: bermudagrass; assay: Test F preemergence test; assay type: in vivo, Cynodon dactylon; details: scale 0 to 100
Outline: as §1

[7] = tested on: Surinam grass; assay: Test F preemergence test; assay type: in vivo, Brachiaria decumbens; details: scale 0 to 100
Outline: as §1

[8] = tested on: common mallow; assay: Test F preemergence test; assay type: in vivo, Malva sylvestris; details: scale 0 to 100
Outline: as §1

[9] = tested on: corn; assay: Test A pre-/postemergence greenhouse test; assay type: in vivo, Zea mays; details: for Corn plant response rating: 0 to 100 scale
Outline: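 Pre: directed soil spray on seeded loam/sand. Post: foliar spray, plants 2–10 cm, 1–2 leaf stage, applied concurrently. Vehicle: non-phytotoxic solvent + surfactant. Greenhouse ~10 d; visual injury rating vs untreated controls.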

[10] = tested on: kochia; assay: Test F preemergence test; assay type: in vivo, Kochia scoparia; details: scale 0 to 100
Outline: as §1

[11] = tested on: green foxtail; assay: Test C pre-/postemergence test; assay type: in vivo, Setaria viridis; details: for Plant response rating, Foxtail, Green: scale 0 to 100, 0 no effect, 100 complete control
Outline: as §2

[12] = tested on: mustard; assay: Test F preemergence test; assay type: in vivo, Brassica nigra; details: scale 0 to 100
Outline: as §1

[13] = tested on: broadleaf signalgrass; assay: Test F preemergence test; assay type: in vivo, Brachiaria platyphylla; details: scale 0 to 100
Outline: as §1

[14] = tested on: dallisgrass; assay: Test F preemergence test; assay type: in vivo, Paspalum dilatatum; details: scale 0 to 100
Outline: as §1

[15] = 31 g ai/ha, Preemergence, scale 0 to 100
[16] = 62 g ai/ha, preemergence, scale 0 (no effect) to 100 (complete control)
[17] = preemergence, 125 g ai/ha, scale 0 (no effect) to 100 (complete control)

Cc1cc[n+]([O-])c([S+]([O-])Cc2c(C(F)(F)F)nn(C)c2OC(F)F)c1 (centres unmarked) [Compound 1]
Plant response rating, Dayflower ([1]; 8 g ai/ha, preemergence): 0 | Dayflower plant response rating ([1]; 62 g ai/ha, Preemergence): 100 | Plant response rating, Dayflower ([1]; Preemergence, 16 g ai/ha): 0 | Plant response rating, Dayflower ([1]; Preemergence, 31 g ai/ha): 80 | Plant response rating, Quackgrass ([2]; 8 g ai/ha, preemergence): 0 | Quackgrass plant response rating ([2]; 62 g ai/ha, Preemergence): 65 | Plant response rating, Quackgrass ([2]; Preemergence, 16 g ai/ha): 35 | Plant response rating, Quackgrass ([2]; Preemergence, 31 g ai/ha): 50 | Plant response rating, Prickly Sida ([3]; 8 g ai/ha, preemergence): 0 | Prickly Sida plant response rating ([3]; 62 g ai/ha, Preemergence): 80 | Plant response rating, Prickly Sida ([3]; Preemergence, 16 g ai/ha): 20 | Plant response rating, Prickly Sida ([3]; Preemergence, 31 g ai/ha): 60 | Ragweed plant response rating [4, 15]: 0 | Ragweed plant response rating [4, 16]: 10 | Plant response rating (0 to 100), Ragweed ([4]; Postemergence, 31 g ai/ha): 0 | Plant response rating (0 to 100), Ragweed ([4]; Postemergence, 62 g ai/ha): 0 | Plant response rating, Ragweed ([4]; Postemergence, 125 g ai/ha): 10 | Plant response rating, Ragweed ([4]; Postemergence, 250 g ai/ha): 20 | Plant response rating (0 to 100), Ragweed ([4]; Preemergence, 250 g ai/ha): 85 | Ragweed plant response rating [4, 17]: 85 | Blackgrass plant response rating [5, 15]: 70 | Blackgrass plant response rating [5, 16]: 100 | Plant response rating (0 to 100), Blackgrass ([5]; Postemergence, 31 g ai/ha): 0 | Plant response rating, Blackgrass ([5]; Postemergence, 62 g ai/ha): 0 | Plant response rating, Blackgrass ([5]; Postemergence, 125 g ai/ha): 0 | Plant response rating, Blackgrass ([5]; Postemergence, 250 g ai/ha): 0 | Plant response rating (0 to 100), Blackgrass ([5]; Preemergence, 250 g ai/ha): 100 | Blackgrass plant response rating [5, 17]: 100 | Plant response rating, Bermudagrass ([6]; 8 g ai/ha, preemergence): 0 | Bermudagrass plant response rating ([6]; 62 g ai/ha, Preemergence): 80 | Plant response rating, Bermudagrass ([6]; Preemergence, 16 g ai/ha): 40 | Plant response rating, Bermudagrass ([6]; Preemergence, 31 g ai/ha): 40 | Plant response rating, Surinam Grass ([7]; 8 g ai/ha, preemergence): 0 | Plant response rating, Surinam Grass ([7]; 16 g ai/ha, preemergence): 0 | Surinam Grass plant response rating ([7]; 62 g ai/ha, Preemergence): 90 | Plant response rating, Surinam Grass ([7]; Preemergence, 31 g ai/ha): 0 | Plant response rating, Mallow ([8]; 8 g ai/ha, preemergence): 0 | Mallow plant response rating ([8]; 62 g ai/ha, Preemergence): 100 | Plant response rating, Mallow ([8]; Preemergence, 16 g ai/ha): 0 | Plant response rating, Mallow ([8]; Preemergence, 31 g ai/ha): 70 | Corn plant response rating ([9]; Postemergence, 125 g ai/ha, 0 is no effect, 100 is complete control): 50 | Corn plant response rating ([9]; Postemergence, 500 g ai/ha, 0 is no effect, 100 is complete control): 80 | Corn plant response rating ([9]; Preemergence, 125 g ai/ha, 0 no effect, 100 complete control): 0 | Plant response rating, Corn ([9]; Preemergence, 500 g ai/ha, 0 to 100 scale where 0 is no effect and 100 is complete control): 70 | Plant response rating, Kochia ([10]; 8 g ai/ha, preemergence): 0 | Kochia plant response rating ([10]; 62 g ai/ha, Preemergence): 90 | Plant response rating, Kochia ([10]; Preemergence, 16 g ai/ha): 0 | Plant response rating, Kochia ([10]; Preemergence, 31 g ai/ha): 35 | Foxtail, Green plant response rating [11, 15]: 100 | Foxtail, Green plant response rating [11, 16]: 100 | Plant response rating (0 to 100), Foxtail, Green ([11]; Postemergence, 31 g ai/ha): 0 | Plant response rating, Foxtail, Green ([11]; Postemergence, 62 g ai/ha): 0 | Plant response rating, Foxtail, Green ([11]; Postemergence, 125 g ai/ha): 30 | Plant response rating, Foxtail, Green ([11]; Postemergence, 250 g ai/ha): 60 | Plant response rating (0 to 100), Foxtail, Green ([11]; Preemergence, 250 g ai/ha): 100 | Foxtail, Green plant response rating [11, 17]: 100 | Plant response rating, Black Mustard ([12]; 8 g ai/ha, preemergence): 0 | Black Mustard plant response rating ([12]; 62 g ai/ha, Preemergence): 100 | Plant response rating, Black Mustard ([12]; Preemergence, 16 g ai/ha): 0 | Plant response rating, Black Mustard ([12]; Preemergence, 31 g ai/ha): 80 | Plant response rating, Signalgrass ([13]; 8 g ai/ha, preemergence): 0 | Plant response rating, Signalgrass ([13]; 16 g ai/ha, preemergence): 0 | Signalgrass plant response rating ([13]; 62 g ai/ha, Preemergence): 50 | Plant response rating, Signalgrass ([13]; Preemergence, 31 g ai/ha): 25 | Plant response rating, Dallisgrass ([14]; 8 g ai/ha, preemergence): 0 | Dallisgrass plant response rating ([14]; 62 g ai/ha, Preemergence): 50 | Plant response rating, Dallisgrass ([14]; Preemergence, 16 g ai/ha): 0 | Plant response rating, Dallisgrass ([14]; Preemergence, 31 g ai/ha): 20
